This is an account of results in patent US6316623A, “Ethylenediamine compound libraries” (priority 1998, dated 2001).

The assay deals with E. coli imp-. As to the kind of experiment: microbe, parasite or virus in culture. It counts as cell-based. Particulars: Escherichia coli, 24 h, read-out: % inhibition of bacterial growth in culture. As for the experimental part: In this assay, the strain E. coli imp-obtained from Spenser Bensen (Sampson, B. A., Misra, R. & Benson, S. A. (1989), Genetics, 122, 491-501, Identification and characterization of a new gene of Escherichia coli K-12 involved in outer membrane permeability) is used. To initiate the exponential phase of bacterial growth prior to the assay, a sample of bacteria was grown overnight at 37° C. in Luria broth and then used to reinoculate sample wells of 96-well microtiter plates. The assays were carried out in the 96-well microtiter plates in 150 μL volume with approximately 1×10^6 cells per well.
Bacteria in Luria broth (75 μL) was added to the compound mixtures in solution in 75 μL water in the individual well of the microtiter plate. Final concentrations of the compound mixtures were 25 μM, 10 μM and 1 μM. Each concentration of the compound mixtures were assayed in triplicate. The plates were incubated at 37° C. and growth monitored over a 24 hour period by measuring the optical density at 595 nm using a BioRad model 3550 UV microplate reader. The percentage of growth relative to a well containing no compound was determined. Ampicillin and tetracycline antibiotic positive controls were concurrently tested in each screening assay.
A word on the inhibition: it is the relative decrease from the control value, in per cent. Turning to `CC(C)(C)c1ccc(C(=O)N(CCNC(=O)c2cnccn2)CC2CCCN(C(=O)Cc3ccccc3)C2)cc1` (racemic) [compound 17957], the inhibition at 500 µM amounted to 95.7%.
`CC(C)(C)c1ccc(C(=O)N(CCNC(N)=O)CC2CCCN(C(=O)CO)C2)cc1` (racemic) [compound 17959]: the inhibition at 500 µM was determined as 39.5%.
For `Cc1ccc(NC(=O)NCCN(C(=O)C2CC2)C2CCN(C(=O)Cc3ccccc3)C2)cc1` (racemic) [compound 17986], the inhibition at 500 µM amounted to 35.2%.
Consider `CC(C)(C)c1ccc(C(=O)N(CCNC(=O)c2cnccn2)C2CCN(C(=O)Cc3ccccc3)C2)cc1` (racemic) [compound 17989], for which the inhibition at 500 µM amounted to 38.5%.
Regarding `O=C(NCCN(C(=O)CO)C1CCN(C(=O)Cc2ccccc2)C1)c1cnccn1` (racemic) [compound 18005], the inhibition at 500 µM was determined as 61.1%.
`CC(C)(C)c1ccc(C(=O)N(CCNC(=O)c2cnccn2)CC2CCN(C(=O)Cc3ccccc3)CC2)cc1` [compound 17925]: the inhibition at 500 µM was 93.9%.
In the case of `CC(C)(C)c1ccc(C(=O)N(CCNC(N)=O)CC2CCN(C(=O)CO)CC2)cc1` [compound 17927], the inhibition at 500 µM came out at 96.3%.
Turning to `Cc1ccc(NC(=O)NCCN(CC2CCN(C(=O)CO)CC2)C(=O)c2ccc(N)cc2)cc1` [compound 17946], the inhibition at 500 µM is 98.7%.
